In the NIST ThermoML archive (doi:10.1016/j.jct.2015.03.021):
Numbers after ± are expanded uncertainties.

How the values were obtained:
[1] = 101.33 kPa, Liquid, Vibrating tube method
[2] = relative permittivity at various frequencies (dimensionless); conditions: 100 kPa, Liquid, Frequency=1 MHz, Parallel plate capacitor
[3] = excess molar enthalpy (molar enthalpy of mixing); xn = mol fraction of the nth substance listed; conditions: 100 kPa, Liquid, Calvet calorimetry

`CCC(C)CO` (stereo not drawn) [2-methyl-1-butanol] gave a mass density ([1]; 298.15 K) of 814.98 ± 0.31 kg/m3, a mass density ([1]; 308.15 K) of 807.63 ± 0.31 kg/m3 and a relative permittivity ([2]; 298.15 K) of 15.52 ± 0.23. The relative permittivity ([2]; 308.15 K) was 14.07 ± 0.23.

In the case of `CCC(C)CO` (stereo not drawn) [2-methyl-1-butanol] + CCCCOCCCC, the excess molar enthalpy ([3]; 298.15 K, x2 = 0.0954) is reported as 0.0664 ± 0.00143 kcal/mol, the excess molar enthalpy ([3]; 298.15 K, x2 = 0.162) is reported as 0.113 ± 0.00239 kcal/mol and the excess molar enthalpy ([3]; 298.15 K, x2 = 0.2536) is reported as 0.165 ± 0.00359 kcal/mol. The excess molar enthalpy ([3]; 298.15 K, x2 = 0.3156) was 0.193 ± 0.00406 kcal/mol, the excess molar enthalpy ([3]; 298.15 K, x2 = 0.4007) was 0.221 ± 0.00478 kcal/mol and the excess molar enthalpy ([3]; 298.15 K, x2 = 0.4806) was 0.241 ± 0.00526 kcal/mol. For the same compound, the excess molar enthalpy ([3]; 298.15 K, x2 = 0.5445) was 0.246 ± 0.00526 kcal/mol, the excess molar enthalpy ([3]; 298.15 K, x2 = 0.6338) was 0.248 ± 0.00526 kcal/mol and the excess molar enthalpy ([3]; 298.15 K, x2 = 0.7017) was 0.237 ± 0.00502 kcal/mol. For the same compound, the excess molar enthalpy ([3]; 298.15 K, x2 = 0.7832) was 0.211 ± 0.00454 kcal/mol, the excess molar enthalpy ([3]; 298.15 K, x2 = 0.8542) was 0.176 ± 0.00382 kcal/mol and the excess molar enthalpy ([3]; 298.15 K, x2 = 0.9335) was 0.101 ± 0.00215 kcal/mol. For the same compound, the excess molar enthalpy ([3]; 308.15 K, x2 = 0.0798) was 0.0595 ± 0.00143 kcal/mol, the excess molar enthalpy ([3]; 308.15 K, x2 = 0.152) was 0.111 ± 0.00239 kcal/mol and the excess molar enthalpy ([3]; 308.15 K, x2 = 0.2539) was 0.168 ± 0.00359 kcal/mol. The excess molar enthalpy ([3]; 308.15 K, x2 = 0.3152) was 0.198 ± 0.0043 kcal/mol, the excess molar enthalpy ([3]; 308.15 K, x2 = 0.4069) was 0.224 ± 0.00478 kcal/mol and the excess molar enthalpy ([3]; 308.15 K, x2 = 0.4701) was 0.242 ± 0.00526 kcal/mol. For the same compound, the excess molar enthalpy ([3]; 308.15 K, x2 = 0.5703) was 0.251 ± 0.0055 kcal/mol, the excess molar enthalpy ([3]; 308.15 K, x2 = 0.6528) was 0.249 ± 0.00526 kcal/mol and the excess molar enthalpy ([3]; 308.15 K, x2 = 0.7263) was 0.235 ± 0.00502 kcal/mol. For the same compound, the excess molar enthalpy ([3]; 308.15 K, x2 = 0.8093) was 0.202 ± 0.0043 kcal/mol, the excess molar enthalpy ([3]; 308.15 K, x2 = 0.897) was 0.147 ± 0.00311 kcal/mol and the excess molar enthalpy ([3]; 308.15 K, x2 = 0.9553) was 0.07 ± 0.00167 kcal/mol.

In the case of `CCC(C)(C)O` [2-methylbutan-2-ol], the mass density ([1]; 298.15 K) is reported as 804.31 ± 0.82 kg/m3, the mass density ([1]; 308.15 K) is reported as 795.16 ± 0.8 kg/m3 and the relative permittivity ([2]; 298.15 K) is reported as 5.63 ± 0.07. It also gave a relative permittivity ([2]; 308.15 K) of 5.23 ± 0.07.

`CCC(C)(C)O` [2-methylbutan-2-ol] + CCCCOCCCC gave an excess molar enthalpy ([3]; 298.15 K, x2 = 0.0916) of 0.0557 ± 0.0012 kcal/mol, an excess molar enthalpy ([3]; 298.15 K, x2 = 0.1591) of 0.098 ± 0.00215 kcal/mol and an excess molar enthalpy ([3]; 298.15 K, x2 = 0.2403) of 0.141 ± 0.00311 kcal/mol. It also gave an excess molar enthalpy ([3]; 298.15 K, x2 = 0.3201) of 0.18 ± 0.00382 kcal/mol, an excess molar enthalpy ([3]; 298.15 K, x2 = 0.3985) of 0.21 ± 0.00454 kcal/mol and an excess molar enthalpy ([3]; 298.15 K, x2 = 0.4755) of 0.234 ± 0.00502 kcal/mol. It also gave an excess molar enthalpy ([3]; 298.15 K, x2 = 0.5445) of 0.249 ± 0.00526 kcal/mol, an excess molar enthalpy ([3]; 298.15 K, x2 = 0.6392) of 0.258 ± 0.0055 kcal/mol and an excess molar enthalpy ([3]; 298.15 K, x2 = 0.6992) of 0.255 ± 0.0055 kcal/mol. It also gave an excess molar enthalpy ([3]; 298.15 K, x2 = 0.7733) of 0.237 ± 0.00502 kcal/mol, an excess molar enthalpy ([3]; 298.15 K, x2 = 0.8569) of 0.199 ± 0.0043 kcal/mol and an excess molar enthalpy ([3]; 298.15 K, x2 = 0.933) of 0.123 ± 0.00263 kcal/mol. For the same compound, the excess molar enthalpy ([3]; 308.15 K, x2 = 0.0919) was 0.065 ± 0.00143 kcal/mol, the excess molar enthalpy ([3]; 308.15 K, x2 = 0.1603) was 0.108 ± 0.00239 kcal/mol and the excess molar enthalpy ([3]; 308.15 K, x2 = 0.2403) was 0.155 ± 0.00335 kcal/mol. For the same compound, the excess molar enthalpy ([3]; 308.15 K, x2 = 0.3244) was 0.188 ± 0.00406 kcal/mol, the excess molar enthalpy ([3]; 308.15 K, x2 = 0.4034) was 0.217 ± 0.00454 kcal/mol and the excess molar enthalpy ([3]; 308.15 K, x2 = 0.476) was 0.244 ± 0.00526 kcal/mol. The excess molar enthalpy ([3]; 308.15 K, x2 = 0.5541) was 0.262 ± 0.00574 kcal/mol, the excess molar enthalpy ([3]; 308.15 K, x2 = 0.702) was 0.272 ± 0.00574 kcal/mol and the excess molar enthalpy ([3]; 308.15 K, x2 = 0.7747) was 0.258 ± 0.0055 kcal/mol. It also gave an excess molar enthalpy ([3]; 308.15 K, x2 = 0.8671) of 0.204 ± 0.0043 kcal/mol and an excess molar enthalpy ([3]; 308.15 K, x2 = 0.9322) of 0.129 ± 0.00287 kcal/mol.

`CC(C)C(C)O` (stereo not drawn) [3-methyl-2-butanol] gave a mass density ([1]; 298.15 K) of 813.09 ± 0.83 kg/m3, a mass density ([1]; 308.15 K) of 804.35 ± 0.82 kg/m3 and a relative permittivity ([2]; 298.15 K) of 11.98 ± 0.19. For the same compound, the relative permittivity ([2]; 308.15 K) was 10.78 ± 0.19.

Compound `CC(C)C(C)O` (stereo not drawn) [3-methyl-2-butanol] + CCCCOCCCC has an excess molar enthalpy ([3]; 298.15 K, x2 = 0.0959) of 0.0882 ± 0.00191 kcal/mol, an excess molar enthalpy ([3]; 298.15 K, x2 = 0.1639) of 0.144 ± 0.00311 kcal/mol and an excess molar enthalpy ([3]; 298.15 K, x2 = 0.2508) of 0.204 ± 0.0043 kcal/mol. It also gave an excess molar enthalpy ([3]; 298.15 K, x2 = 0.3274) of 0.241 ± 0.00526 kcal/mol, an excess molar enthalpy ([3]; 298.15 K, x2 = 0.3977) of 0.263 ± 0.00574 kcal/mol and an excess molar enthalpy ([3]; 298.15 K, x2 = 0.4693) of 0.279 ± 0.00598 kcal/mol. The excess molar enthalpy ([3]; 298.15 K, x2 = 0.552) was 0.289 ± 0.00621 kcal/mol, the excess molar enthalpy ([3]; 298.15 K, x2 = 0.6335) was 0.287 ± 0.00621 kcal/mol and the excess molar enthalpy ([3]; 298.15 K, x2 = 0.7081) was 0.273 ± 0.00574 kcal/mol. The excess molar enthalpy ([3]; 298.15 K, x2 = 0.7757) was 0.248 ± 0.00526 kcal/mol, the excess molar enthalpy ([3]; 298.15 K, x2 = 0.8645) was 0.194 ± 0.00406 kcal/mol and the excess molar enthalpy ([3]; 298.15 K, x2 = 0.9394) was 0.106 ± 0.00239 kcal/mol. The excess molar enthalpy ([3]; 308.15 K, x2 = 0.0813) was 0.0648 ± 0.00143 kcal/mol, the excess molar enthalpy ([3]; 308.15 K, x2 = 0.155) was 0.118 ± 0.00263 kcal/mol and the excess molar enthalpy ([3]; 308.15 K, x2 = 0.2572) was 0.181 ± 0.00382 kcal/mol. The excess molar enthalpy ([3]; 308.15 K, x2 = 0.3229) was 0.233 ± 0.00502 kcal/mol, the excess molar enthalpy ([3]; 308.15 K, x2 = 0.4119) was 0.263 ± 0.00574 kcal/mol and the excess molar enthalpy ([3]; 308.15 K, x2 = 0.4817) was 0.281 ± 0.00598 kcal/mol. For the same compound, the excess molar enthalpy ([3]; 308.15 K, x2 = 0.5473) was 0.288 ± 0.00621 kcal/mol, the excess molar enthalpy ([3]; 308.15 K, x2 = 0.6348) was 0.287 ± 0.00621 kcal/mol and the excess molar enthalpy ([3]; 308.15 K, x2 = 0.7226) was 0.269 ± 0.00574 kcal/mol. It also gave an excess molar enthalpy ([3]; 308.15 K, x2 = 0.8083) of 0.235 ± 0.00502 kcal/mol, an excess molar enthalpy ([3]; 308.15 K, x2 = 0.8908) of 0.168 ± 0.00359 kcal/mol and an excess molar enthalpy ([3]; 308.15 K, x2 = 0.9786) of 0.0538 ± 0.0012 kcal/mol.
